In data set [1] the target is T1, acid ceramidase (Homo sapiens, UniProt Q13510).
T1 construct: Cell lysates overexpressing acid ceramidase were used as the enzyme source; expressed in transfected cells
T1 sequence (Q13510 22-395): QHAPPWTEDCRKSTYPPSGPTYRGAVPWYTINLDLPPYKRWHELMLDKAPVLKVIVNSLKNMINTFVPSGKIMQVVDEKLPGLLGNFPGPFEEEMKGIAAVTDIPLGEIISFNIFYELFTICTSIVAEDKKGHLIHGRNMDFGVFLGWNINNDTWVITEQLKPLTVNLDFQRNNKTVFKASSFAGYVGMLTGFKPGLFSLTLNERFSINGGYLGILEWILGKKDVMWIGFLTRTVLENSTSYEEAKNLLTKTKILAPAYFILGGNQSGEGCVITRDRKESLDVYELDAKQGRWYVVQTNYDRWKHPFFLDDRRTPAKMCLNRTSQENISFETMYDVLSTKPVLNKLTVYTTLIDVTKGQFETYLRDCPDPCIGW
As to the kind of experiment: Acid ceramidase inhibition, biochemical fluorescent assay with cell lysates overexpressing acid ceramidase, substrate Rbm14-12. Particulars: substrate Rbm14-12 6.3 μM. The gist of the method:
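Lysate of cells overexpressing acid ceramidase (10 μg protein) preincubated with compound dose series 1 hr at RT in 25 mM NaAC, 100 mM NaCl, pH 4.5, then reacted 1 hr with 6.3 μM Rbm14-12. Stopped with NaIO4/glycine buffer pH 10.6, fluorescence ex360/em446; IC50 by four-parameter fit.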

Data set [2] can be described thus: Compound solubility in water.
Setting [3] is: pH 4.5, 1 hr preincubation at RT.

In brackets after ≈: the same amount, converted by molar mass.

On to `CN1CC2(CCN(c3cccc4c3ncn4C(=O)NCCC#Cc3ccccc3)CC2)C1` [Example 367, 4-(2-Methyl-2,7-diazaspiro[3.5]nonan-7-yl)-N-(4-phenylbut-3-yn-1-yl)-1H-benzo[d]imidazole-1-carboxamide], for which the IC50 in data set [1] (setting [3]) was under 200 nM. The molecule also registered a solubility in data set [2] of 27 µg/mL (≈ 63.2 µM).

Turning to `CN1CC2CCC(C1)N2c1cccc2c1ncn2C(=O)NCCCc1ccccc1` [Example 241, 4-(3-Methyl-3,8-diazabicyclo[3.2.1]octan-8-yl)-N-(3-phenylpropyl)-1H-benzo[d]imidazole-1-carboxamide], the IC50 in data set [1] (pH 4.5) was under 200 nM. The molecule further displayed a solubility in data set [2] of 25 µg/mL (≈ 62 µM).

As for `COc1nc2cc(N3CCOCC3)c(F)cc2n1C(=O)NCC#CC(C)C` [Example 321a, 6-Fluoro-2-methoxy-N-(4-methylpent-2-yn-1-yl)-5-morpholino-1H-benzo[d]imidazole-1-carboxamide], the IC50 in data set [1] (pH 4.5) is 200 to 1000 nM. Further, the solubility in data set [2] amounted to 2 µg/mL (≈ 5.34 µM).

In data set [1] (pH 4.5), `CCN1CCC(c2cccc3c2ncn3C(=O)NCCCc2ccccc2)C1` (centres unmarked) [Example 261, 4-(1-Ethylpyrrolidin-3-yl)-N-(3-phenylpropyl)-1H-benzo[d]imidazole-1-carboxamide] showed an IC50 of under 200 nM. For the same molecule, in data set [2], the concentration in solution (solubility) was 26 µg/mL (≈ 69.1 µM).

For the molecule `CC(C)C#CCNC(=O)n1cnc2c(N3CCN(CCC(F)(F)F)CC3)cccc21` [Example 310, N-(4-Methylpent-2-yn-1-yl)-4-(4-(3,3,3-trifluoropropyl)piperazin-1-yl)-1H-benzo[d]imidazole-1-carboxamide], the IC50 in data set [1] (pH 4.5) is under 200 nM. The molecule further had a solubility in data set [2] of 4 µg/mL (≈ 9.49 µM).

`CC(C)CCNC(=O)n1cnc2c(N3CCOCC3)cc(C#N)cc21` [Example 179, 6-Cyano-N-iso-pentyl-4-morpholino-1H-benzo[d]imidazole-1-carboxamide] gave an IC50 in data set [1] (pH 4.5) of under 200 nM. In data set [2], this molecule displayed a solubility of 10 µg/mL (≈ 29.3 µM).

Turning to `N#Cc1cc(N2CCOCC2)c2ncn(C(=O)NCCCC3CC3)c2c1` [Example 178, 6-Cyano-N-(3-cyclopropylpropyl)-4-morpholino-1H-benzo[d]imidazole-1-carboxamide], the IC50 in data set [1] (pH 4.5) is under 200 nM. The molecule further yielded a solubility in data set [2] of 2 µg/mL (≈ 5.66 µM).

In data set [1] (pH 4.5), `COc1nc2cc(N3CCOCC3)ccc2n1C(=O)NCCCCn1ccc(C(C)(C)C)n1` [Example 188a, N-(4-(3-(tert-Butyl)-1H-pyrazol-1-yl)butyl)-2-methoxy-5-morpholino-1H-benzo[d]imidazole-1-carboxamide] yielded an IC50 of 200 to 1000 nM. In data set [2], this molecule showed a solubility of 27 µg/mL (≈ 59.4 µM).

In data set [1] (pH 4.5), `CN1CC2CCC1CN2c1cccc2c1ncn2C(=O)NCCC1CCC(F)(F)C1` (centres unmarked) [Example 292, N-(2-(3,3-Difluorocyclopentyl)ethyl)-4-(5-methyl-2,5-diazabicyclo[2.2.2]octan-2-yl)-1H-benzo[d]imidazole-1-carboxamide] registered an IC50 of 200 to 1000 nM. This molecule registered a solubility in data set [2] of 36 µg/mL (≈ 86.2 µM).

In data set [1] (setting [3]), `COc1c(-c2cncnc2)ccc2c1ncn2C(=O)NCC(C)C` [Example 75, N-isoButyl-4-methoxy-5-(pyrimidin-5-yl)-1H-benzo[d]imidazole-1-carboxamide] had an IC50 of 200 to 1000 nM. The molecule further returned a solubility in data set [2] of 27 µg/mL (≈ 83 µM).

As to `COc1nc2cc(F)c(N3CCN(C4CN(C)C4)CC3)cc2n1C(=O)NCCCc1ccccc1` [Example 319b, 5-fluoro-2-methoxy-6-(4-(1-methylazetidin-3-yl)piperazin-1-yl)-N-(3-phenylpropyl)-1H-benzo[d]imidazole-1-carboxamide], in data set [1] (pH 4.5), the IC50 lay in the range of 200 to 1000 nM. The molecule also came in with a solubility in data set [2] of 46 µg/mL (≈ 95.7 µM).

Consider `COc1ccnc2c1ncn2C(=O)NCCc1ccccc1` [Example 50, 7-Methoxy-N-phenethyl-3H-imidazo[4,5-b]pyridine-3-carboxamide], for which the IC50 in data set [1] (setting [3]) was 200 to 1000 nM. The solubility in data set [2] stood at 9.5 µg/mL (≈ 32.1 µM).

As for `CN1CCN(c2cccc3c2ncn3C(=O)NCC#Cc2ccccc2)CC1` [Example 282, 4(4-Methylpiperazin-1-yl)-N-(3-phenylprop-2-yn-1-yl)-1H-benzo[d]imidazole-1-carboxamide], in data set [1] (pH 4.5), the IC50 is under 200 nM. Also, the solubility in data set [2] is 21 µg/mL (≈ 56.2 µM).

Turning to `CC(C)CCNC(=O)n1cnc2c(N3C[C@H](C)O[C@@H](C)C3)cccc21` (stereo in doubt) [Example 168, 4-((2S,6S)-2,6-Dimethylmorpholino)-N-iso-pentyl-1H-benzo[d]imidazole-1-carboxamide], the IC50 in data set [1] (pH 4.5) lay within 200 to 1000 nM. In data set [2], this molecule yielded a solubility of 11 µg/mL (≈ 31.9 µM).

`O=C(NCCOc1ccccc1)n1cnc2ncccc21` [Example 62, N-(2-Phenoxyethyl)-1H-imidazo[4,5-b]pyridine-1-carboxamide] had an IC50 in data set [1] (setting [3]) of under 200 nM. For the same molecule, the solubility in data set [2] was found to be 26.6 µg/mL (≈ 94.2 µM).

`COc1nc2ccc(N3CCC4(CC3)COC4)cc2n1C(=O)NCCCc1ccccc1` [Example 238a, 2-Methoxy-N-(3-phenylpropyl)-6-(2-oxa-7-azaspiro[3,5]nonan-7-yl)-1H-benzo[d]imidazole-1-carboxamide] came in with an IC50 in data set [1] (pH 4.5) of under 200 nM. In data set [2], this molecule returned a solubility of 11 µg/mL (≈ 25.3 µM).

For the molecule `CN(C)C1CN(c2cccc3c2ncn3C(=O)NCCC#Cc2ccccc2)C1` [Example 364, 4-(3-(Dimethylamino)azetidin-1-yl)-N-(4-phenylbut-3-ynyl)-1H-benzo[d]imidazole-1-carboxamide], the IC50 in data set [1] (setting [3]) was under 200 nM. The same molecule had a solubility in data set [2] of 17 µg/mL (≈ 43.9 µM).

Molecule `COc1cc2ncn(C(=O)NCC(C)C)c2cc1-c1cncnc1` [Example 79b, N-iso-butyl-5-methoxy-6-(pyrimidin-5-yl)-1H-benzo[d]imidazole-1-carboxamide] displayed an IC50 in data set [1] (setting [3]) of under 200 nM. This molecule also gave a solubility in data set [2] of 26.5 µg/mL (≈ 81.4 µM).

For `CCCCNC(=O)n1c(OC(C)C)nc2ccccc21` [Example 96, N-Butyl-2-isopropoxy-1H-benzo[d]imidazole-1-carboxamide], the concentration for half-maximal inhibition (IC50) in data set [1] (setting [3]) was over 1000 nM. The molecule also had a solubility in data set [2] of 10.3 µg/mL (≈ 37.4 µM).

Molecule `COc1nc2cc(N3CCN(C4CN(C)C4)CC3)c(F)cc2n1C(=O)NCCCc1ccccc1` [Example 319a, 6-Fluoro-2-methoxy-5-(4-(1-methylazetidin-3-yl)piperazin-1-yl)-N-(3-phenylpropyl)-1H-benzo[d]imidazole-1-carboxamide] showed an IC50 in data set [1] (pH 4.5) of 200 to 1000 nM. The concentration in solution in data set [2] (solubility) was 35 µg/mL (≈ 72.8 µM).

The molecule `CC(C)CCNC(=O)n1cnc2c(N3CCN(c4cccc5cncn45)CC3)cccc21` [Example 156, 4-(4-(Imidazo[1,5-a]pyridin-5-yl)piperazin-1-yl)-N-iso-pentyl-1H-benzo[d]imidazole-1-carboxamide] had an IC50 in data set [1] (setting [3]) of 200 to 1000 nM. Besides, the solubility in data set [2] turned out to be 0.2 µg/mL (≈ 0.463 µM).

`CC(C)C#CCNC(=O)n1cnc2c(N3CCN(C)C(CC#N)C3)cccc21` (centres unmarked) [Example 306, 4-(3-(Cyanomethyl)-4-methylpiperazin-1-yl)-N-(4-methylpent-2-ynyl)-1H-benzo[d]imidazole-1-carboxamide] came in with an IC50 in data set [1] (pH 4.5) of under 200 nM. The same molecule displayed a solubility in data set [2] of 23 µg/mL (≈ 60.8 µM).

Turning to `CNC1CCN(c2cccc3c2ncn3C(=O)NCC#CC(C)C)C1` (centres unmarked) [Example 300, 4-(3-(Methylamino)pyrrolidin-1-yl)-N-(4-methylpent-2-ynyl)-1H-benzo[d]imidazole-1-carboxamide], the IC50 in data set [1] (pH 4.5) was under 200 nM. This molecule returned a solubility in data set [2] of 29 µg/mL (≈ 85.4 µM).

In the case of `CC(C)(C)CCCNC(=O)n1cnc2c(N3CCOCC3)cccc21` [Example 186, N-(4,4-Dimethylpentyl)-4-morpholino-1H-benzo[d]imidazole-1-carboxamide], the IC50 in data set [1] (pH 4.5) was under 200 nM. In data set [2], this molecule displayed a solubility of 10 µg/mL (≈ 29 µM).

As to `CN1CC(N2CCN(c3cccc4c3ncn4C(=O)NCCOc3ccccc3)CC2)C1` [Example 296, 4-(4-(1-Methylazetidin-3-yl)piperazin-1-yl)-N-(2-phenoxyethyl)-1H-benzo[d]imidazole-1-carboxamide], the IC50 in data set [1] (pH 4.5) was under 200 nM. Besides, the concentration in solution in data set [2] (solubility) came to 36 µg/mL (≈ 82.8 µM).

`CN1CCC(c2ccc3c(c2)ncn3C(=O)NCCc2ccccc2)CC1` [Example 4, 5-(1-Methylpiperidin-4-yl)-N-phenethyl-1H-bezo[d]imidazole-1-carboxamide] registered an IC50 in data set [1] (setting [3]) of under 200 nM. The same molecule registered a solubility in data set [2] of 20.6 µg/mL (≈ 56.8 µM).

Consider `O=C1CN(c2cccc3c2ncn3C(=O)NCCCc2ccccc2)CCN1C1CC1` [Example 252, 4-(4-Cyclopropyl-3-oxopiperazin-1-yl)-N-(3-phenylpropyl)-1H-benzo[d]imidazole-1-carboxamide], for which the IC50 in data set [1] (pH 4.5) was under 200 nM. In data set [2], this molecule displayed a solubility of 1 µg/mL (≈ 2.4 µM).

For `C[C@@H](CCNC(=O)n1cnc2c(N3CCN(C)CC3)cccc21)c1ccccc1` [Example 253a, (S)-4-(4-Methylpiperazin-1-yl)-N-(3-phenylbutyl)-1H-benzo[d]imidazole-1-carboxamide], in data set [1] (pH 4.5), the IC50 is under 200 nM. This molecule also registered a solubility in data set [2] of 26 µg/mL (≈ 66.4 µM).

Take `CCOc1nc2c(OC)cccc2n1C(=O)NCCC1CC1` [Example 116, N-(2-Cyclopropylethyl)-2-ethoxy-4-methoxy-1H-benzo[d]imidazole-1-carboxamide]: the IC50 in data set [1] (setting [3]) is over 1000 nM. For the same molecule, in data set [2], the solubility was 14.1 µg/mL (≈ 46.5 µM).

For `COc1nc2c(N3CCN(C)CC3)cc(C#N)cc2n1C(=O)NCCC(C)C` [Example 210, 6-Cyano-N-iso-pentyl-2-methoxy-4-(4-methylpiperazin-1-yl)-1H-benzo[d]imidazole-1-carboxamide], in data set [1] (pH 4.5), the IC50 was under 200 nM. Besides, the concentration in solution in data set [2] (solubility) was 12 µg/mL (≈ 31.2 µM).

Regarding `COc1cccc2c1nc(OC)n2C(=O)NCCC(C)C` [Example 115, N-iso-Pentyl-2,4-dimethoxy-1H-benzo[d]imidazole-1-carboxamide], the IC50 in data set [1] (setting [3]) is over 1000 nM. Further, the solubility in data set [2] amounted to 15.4 µg/mL (≈ 52.9 µM).

These data come from US20220380319A1 (Bial - R&D Investments, S.A., priority 2019, published 2022).
